US20200246365A1, “COMPOUNDS, PHARMACEUTICAL COMPOSITIONS AND USE THEREOF AS INHIBITORS OF RAN GTPASE” (THE ROYAL INSTITUTION FOR THE ADVANCEMENT OF LEARNING / …, priority 2017, published 2020)

Key:
[1] = molecular target: T1, recombinant human Ran protein (Homo sapiens, UniProt P62826); assay: Surface Plasmon Resonance (SPR) binding to immobilized Ran
T1 construct: Recombinant Ran protein was purchased from Sigma-Aldrich Inc. (R3152)
Experimental: SPR experiments were carried out using the Biacore 3000 system. Recombinant Ran protein was purchased from Sigma-Aldrich Inc. (R3152). The running buffer contained PBS, pH7.4, 1 mM GDP, 2 mM MgCl2 and 0.2% DMSO. The regeneration buffer contained 10 mM glycine (pH 2.5). Ran-GDP protein was immobilized onto a CM5 chip; samples of compounds in running buffer were injected at 30 μL/min for 10 minutes contact time followed by 5 minutes regeneration. Kd was calculated using the GraphPad Prism 5 software.

TOV112D cells [2] = assay: Clonogenic survival assay, TOV112D; format: cell-based, human; conditions: for IC50: Homo sapiens, read-out: IC50 value for the TOV112D cell line by clonogenic assay; for IC50 / IC50 value for the TOV112D cell line by clonogenic assay: TOV112D
Experimental: (§1) The human EOC cell lines used (TOV81D, TOV112D, OV90, TOV21G, OV866(2), TOV1369(R), OV1369(R2), TOV1946, OV1946, TOV2295(R), OV4485) were derived in our laboratory from patients' tumors (TOV) or ascites (OV). All EOC cell lines were maintained in a low oxygen condition of 7% O2 and 5% CO2 and grown in OSE medium (Wisent, Montreal, QC) supplemented with 10% FBS (Wisent), 0.5 μg/mL amphotericin B (Wisent) and 50 μg/mL gentamicin (Life Technologies Inc., Burlington, ON). The human retinal epithelial cell line ARPE-19 was purchased from American Type Culture Collection (ATCC, Manassas, Va.) and maintained in DMEM-F12 (Wisent) supplemented with 10% FBS (Wisent), 0.5 μg/mL amphotericin B (Wisent) and 50 μg/mL gentamicin (Life Technologies Inc.).
(§2) Clonogenic assays were performed as previously described. Colonies were counted under a stereo microscope and reported as percent of control. IC50 values were determined using Graph Pad Prism 5 software (GraphPad Software Inc., San Diego, Calif.). Each experiment was performed in duplicate and repeated three times. Sensitivity of the cell lines to small molecules inhibitors of Ran was assessed using a concentration range of 0-50 μM.
(§3) Small molecules inhibitors of Ran were dissolved in 100% dimethyl sulfoxide (DMSO) and then further diluted in complete culture media for in vitro experiments. Drugs were added 24 hours after seeding.

ARPE-19 cells [3] = assay: Clonogenic survival assay, ARPE-19; format: cell-based, human; conditions: for effect on normal ARPE-19 cell line in detailed clonogenic assay: different concentrations
Experimental: as §1, §2, §3

Ran-GTP [4] = molecular target: T2, Ran-GTP (Homo sapiens, UniProt P62826); assay: Ran activation (Ran-GTP pull-down) assay in TOV112D cells; format: cell-based; conditions: 1 hour treatment, vs DMSO
Experimental: Cells were seeded onto 6-well tissue culture plates in such a way that cell confluence reaches approximately 70% the day of experiment. The day of experiment cells were treated for 1 hour with the indicated compounds prior to protein extraction and quantification. Assays were performed using the Ran activation assay kit (Cell Biolabs). Briefly, 400 μg of lysates were incubated for one hour at 4° C. with agarose beads conjugated to RANBP1, which specifically binds Ran-GTP. Beads were pelleted, washed, and re-suspended in SDS-PAGE buffer, followed by immunoblotting with an anti-Ran antibody.

TOV112D cells [5] = assay: IncuCyte cell proliferation assay, TOV112D; format: cell-based, human; conditions: for cell growth of TOV112D (new M36 analogs screen): 40 μM
Experimental: as §1
(§4) Cells (2,000 cells/well) were plated in a 96-well plate. The next day, compounds were added at the indicated concentrations. Following treatment, cell confluence was imaged by phase contrast using the IncuCyte live cell monitoring system (Essen BioScience, Ann Arbor, Mich.). Frames were captured at 2-hour intervals using a 10× objective. For Ran knock down experiments, cells were seeded in a 96-well plate (4,000 cells/well) directly after transfection. Cell confluence monitoring started the next day as described above.
as §3

ARPE-19 cells [6] = assay: IncuCyte cell proliferation assay, ARPE-19; format: cell-based, human; conditions: for cell growth of ARPE-19 (new M36 analogs screen): 40 μM; for effect on normal ARPE-19 cells at low concentrations: 0.5 to 2.5 μM
Experimental: as §1, §4, §3

[7] = system: breast cancer cell lines (MDA231, MDA468, HCC1806, ZR75, T47D, BT474, HCC1954); assay: Cell proliferation, breast cancer cell lines; format: cell-based
[8] = Pharmacokinetics in CD1 mice; format: in vivo; conditions: 50 mg/kg
Experimental: For the pharmacokinetic studies, 6-week-old female CD1 mice (Charles River laboratories, Senneville, QC, Canada) received a single intravenous or intraperitoneal injection of M36 or QR20 (50 mg/kg), dissolved in DMSO 10%, Kolliphor® EL 10%, PEG-400 20% and PBS 60% (QR20 was also dissolved in DMSO 10%, PBS 90%). For each time point (15 minutes, 30 minutes, […], 1 hour, 2 hours and 6 hours), 3 mice were sacrificed and blood was collected by cardiac puncture. Thereafter, the plasma level of each compound was measured by mass spectrometry.

[9] = Tolerance test in NRG mice; format: in vivo; conditions: daily i.p. 75 mg/kg for 15 days
Experimental: For the tolerance test, M36 and QR20 compounds were dissolved in DMSO 10%, Kolliphor® EL 10%, PEG-400 20% and PBS 60% and injected intraperitoneally into 6-week-old female Nod Rag Gamma (NRG) mice (The Jackson laboratory, Bar Harbor, Me.) daily at 75 mg/kg. During this study, mice (n=3) were monitored for survival and weight loss/gain.

[10] = system: other aneuploid EOC cells; assay: IncuCyte cell proliferation assay, other aneuploid EOC cell lines; format: cell-based, human; conditions: 80 μM
Experimental: as §1, §4, §3

Ran-GTP [11] = molecular target: T2, Ran-GTP; assay: Ran-GTP immunofluorescence in TOV112D cells; format: cell-based; conditions: TOV112D cells vs DMSO-treated
Experimental: M36 and R28-treated and control TOV112D cells grown on coverslips were washed with 1×PBS, fixed in 4% paraformaldehyde and permeabilized with 0.25% Triton X-100 (Sigma-Aldrich Inc.). After blocking (4% BSA and 4% FBS in PBS), coverslips were incubated with the monoclonal anti-RanGTP antibody (26915, NewEastBioscences) diluted 1:100 in blocking buffer for 2 hours at room temperature. Subsequently, samples were incubated with Cy-5 secondary antibody (1:500, Life Technologies Inc.) for 1 hour and coverslips were mounted onto slides using Prolong® Gold anti-fade reagent with DAPI (Life Technologies Inc.). Samples were visualized under a Zeiss microscope (Zeiss observer Z1) with a 20× objective.

[12] = system: prostate cancer cell lines (LNCaP, 22RV1, PC3, DU145); assay: Cell proliferation, prostate cancer cell lines; format: cell-based
cleaved PARP = assay: Apoptosis by PARP cleavage (Western blot); format: cell-based, human; conditions: 96 hours after treatment
Experimental: Cells were lysed with RIPA buffer containing protease inhibitors. Whole cell lysates were run through a Bradford assay (Thermo Fisher Scientific) for protein quantification. Around 25-50 μg of proteins were separated onto 12.5% SDS-PAGE and transferred onto nitrocellulose membranes. The resultant blots were probed with Ran (1:10000, sc-271376 Santa Cruz Biotechnology, Dallas, Tex.), cleaved PARP (1:1000, #9541, Cell Signaling Technology Inc., Danvers, Mass.), GAPDH (1:2500, #2118, Cell Signaling Technology Inc.) or beta-actin (1:50000, ab6276, Abcam Inc., Toronto, ON, Canada) primary antibodies overnight at 4° C. then with peroxidase-conjugated secondary antibodies for 2 hours at room temperature. Proteins were detected using enhanced chemiluminescence (Thermo Fisher Scientific).

For `NC(=S)[C@@H]1C[C@H](COC(=O)c2ccccc2)[C@@H](OC(=O)c2ccccc2)[C@H]1OC(=O)c1ccccc1` [M26], the “binding to the immobilized Ran protein” value ([1]; different compound concentrations, reached saturation) was “concentration-dependent binding”, the “colony formation of TOV112D cells” value (TOV112D cells [2]; single dose 10 μM) was “specifically inhibited colony formation of EOC” and the “colony formation of ARPE-19 cells” value (ARPE-19 cells [3]; single dose 10 μM) was “not normal cells”. For the same compound, the “active Ran-GTP levels (pull-down)” value (Ran-GTP [4]) was “marked decrease in Ran-GTP levels”.

For `NC(=S)[C@H]1O[C@H](COCc2ccccc2F)[C@@H](OCc2ccccc2F)[C@H]1OCc1ccccc1F` [M46], the IC50 (TOV112D cells [2]) was 12.5 ± 0.36 µM and the “active Ran-GTP levels (pull-down)” value (Ran-GTP [4]) was “weaker than that of M36”.

With `Fc1ccc(CNCc2cc(CNCc3ccc(F)cc3)cc(CNCc3ccc(F)cc3)c2)cc1` [M48] the “IC50 value for the TOV112D cell line by clonogenic assay” value (TOV112D cells [2]) was “low IC50 values”, the “cell growth of TOV112D (new M36 analogs screen)” value (TOV112D cells [5]; day 4) was “completely inhibited cell growth” and the “cell growth of ARPE-19 (new M36 analogs screen)” value (ARPE-19 cells [6]; day 4) was “completely inhibited cell growth”. For the same compound, the “effect on normal ARPE-19 cells at low concentrations” value (shortened to “effect on normal ARPE-19 cells”) (ARPE-19 cells [6]) was “also affected normal ARPE-19 cells”.

In the case of `c1ccc(CNCc2cc(CNCc3ccccc3)cc(CNCc3ccccc3)c2)cc1` [M51], the IC50 (TOV112D cells [2]) is reported as roughly 0.66 µM, the “cell growth of TOV112D (new M36 analogs screen)” value (TOV112D cells [5]; day 4) is reported as “completely inhibited cell growth” and the “TOV112D cell growth at low concentrations” value (TOV112D cells [5]; 0.5, 1, 2.5 μM) is reported as “inhibited TOV112D cell growth”. For the same compound, the “cell growth of ARPE-19 (new M36 analogs screen)” value (ARPE-19 cells [6]; day 4) was “completely inhibited cell growth”, the “effect on normal ARPE-19 cells” value (ARPE-19 cells [6]) was “did not affect normal cells” and the “effect on breast cancer cell lines” value [7] was “effective in one triple negative breast cancer cell line”.

With `COc1ccc(CNCc2cc(CNCc3ccc(OC)cc3)cc(CNCc3ccc(OC)cc3)c2)cc1` [M52] the “IC50 value for the TOV112D cell line by clonogenic assay” value (TOV112D cells [2]) was “low IC50 values”, the “cell growth of TOV112D (new M36 analogs screen)” value (TOV112D cells [5]; day 4) was “completely inhibited cell growth” and the “cell growth of ARPE-19 (new M36 analogs screen)” value (ARPE-19 cells [6]; day 4) was “completely inhibited cell growth”. For the same compound, the “effect on normal ARPE-19 cells” value (ARPE-19 cells [6]) was “also affected normal ARPE-19 cells”.

With `COc1ccc(CN(C)Cc2cc(CN(C)Cc3ccc(OC)cc3)cc(CN(C)Cc3ccc(OC)cc3)c2)cc1` [M55] the IC50 (TOV112D cells [2]) was 4.16 µM, the “cell growth of TOV112D (new M36 analogs screen)” value (TOV112D cells [5]; day 4) was “discriminative effect between normal ARPE-19 and aneuploid TOV112D cells” and the “cell growth of TOV112D, detailed proliferation assay” value (TOV112D cells [5]; 5, 10, 20 μM) was “specifically inhibit cell growth of the TOV112D cells even at a low concentration of 5 μM”.

With `c1ccc(CN2CCN(C(c3ccccc3)C3CCCCC3)CC2)cc1` (stereo not shown) [QR20] the “TOV112D cell proliferation, R20 salts” value (TOV112D cells [5]; 20, 40, 80 μM) was “exactly the same activity to inhibit TOV112D cell proliferation”, the “ARPE-19 cell proliferation, R20 salts” value (ARPE-19 cells [6]; 20, 40, 80 μM) was “without affecting the normal ARPE-19 cells” and the “pharmacokinetics profile based on AUC values” [8] was “good pharmacokinetics profiles”. The tolerance [9] was “well tolerated” and the weight loss [9] was “no weight loss”.

For `c1ccc(CN2CCN(C(c3ccccc3)C3CCCCC3)CC2)cc1` (stereo not shown) [R20], the IC50 (TOV112D cells [2]) was 9.91 ± 0.36 µM, the “effect on normal ARPE-19 cell line in detailed clonogenic assay” value (ARPE-19 cells [3]) was “no effect” and the “cell proliferation of TOV112D (1292 analogs screen)” value (TOV112D cells [5]; 80 μM, vs normal ARPE-19) was “greater efficacy in inhibiting cell proliferation”. The “cell proliferation of other aneuploid EOC cells” value [10] was “inhibited cell proliferation” and the “active Ran-GTP levels (pull-down)” value (Ran-GTP [4]) was “concentration-dependent decrease in Ran-GTP levels”.

With `COc1ccc(CN2CCN(Cc3ccc(OC)c(N(C(=O)Nc4cccc(F)c4)C(=O)Nc4cccc(F)c4)c3)CC2)cc1` [R28] the IC50 (TOV112D cells [2]) was 2.99 ± 0.19 µM, the “proliferation of TOV112D cells (R20 analogs screen)” value (TOV112D cells [5]; 20, 40 and 80 μM, day 4) was “more efficient than compound R20 to inhibit proliferation of TOV112D cells” and the “proliferation of ARPE-19 cells (R20 analogs screen)” value (ARPE-19 cells [6]; 20, 40 and 80 μM, day 4) was “without affecting normal ARPE-19 cells”. For the same compound, the “Ran-GTP levels by immunofluorescence” value (Ran-GTP [11]) was “very low levels of active Ran-GTP”, the “effect on prostate cancer cell lines” value [12] was “effective in both cancer types” and the “effect on breast cancer cell lines” value [7] was “effective in both cancer types”.

For `Oc1ccc(CCCCCCc2ccc(O)cc2)cc1` [V188], the Kd ([1]; Ran-GDP immobilized on CM5 chip) was 0.38 µM and the IC50 (TOV112D cells [2]) was 7.6 ± 0.32 µM.

For `COc1ccc(CN2CCN(Cc3ccc(OC)cc3)CC2)cc1` [compound 1292], the IC50 (TOV112D cells [2]) was 15 ± 0.37 µM, the “effect on normal ARPE-19 cell line in detailed clonogenic assay” value (ARPE-19 cells [3]) was “did not have any effect” and the “cell proliferation of other aneuploid EOC cells” value [10] was “inhibited cell proliferation”. For the same compound, the “active Ran-GTP levels (pull-down)” value (Ran-GTP [4]) was “concentration-dependent decrease in Ran-GTP levels” and the “apoptosis (cleaved PARP on Western blot)” value (cleaved PARP) was “induction of apoptosis”.
